Assay results reported in patent US20060263453A1, “Methods and compositions for modulating glutamate dehydrogenase” (priority 2004, published 2006).

Experiments:
[1] = tested on: islets; experiment: [U-14C]-glucose oxidation in islets; format: cell-based, rat; details: wide range of EGCG concentrations; 3 mM or 12 mM glucose; FIG. 10
Description: In addition, the effect of EGCG on glucose oxidation was measured. More particularly, batches of 100 islets were prepared as described herein and preincubated with glucose-free Krebs-Ringer bicarbonate buffer containing varying concentrations of EGCG (shown in FIG. 10) for 60 minutes. Islets were then incubated with 3 mM or 12 mM glucose, in the presence of the varying concentrations of EGCG, for another 60 minutes, along with 2 mCi [U-^14C]-glucose (NEN-Life Science Products, UK). Production of ^14CO2 was monitored as described above.

[2] = cited from earlier work
[3] = tested on: 'antenna-less' form of human GDH; experiment: kinetic analysis of 'antenna-less' human GDH; format: biochemical; details: FIG. 4
Description: (§1) First, aliquots of GDH were extensively dialyzed against 0.1M sodium phosphate buffer, pH 7.0, which contained 1 mM ethylenediaminetetraacetic acid (EDTA). The enzyme concentrations were adjusted to 1 mg/ml and the amount of enzyme added to the reaction mixture, for kinetic analysis, was adjusted to yield optimal steady state velocity measurements. All solutions were made immediately prior to use. Enzyme assays were performed by monitoring reduced coenzyme absorbance at 340 nm using a Shimadzu UV-1601 spectrophotometer. The reductive amination reactions were performed in 3 mL volumes at pH 7.0 in the presence of 0.1 mM nicotinamide adenine dinucleotide (NADH), 50 mM NH4Cl, and 5 mM 2-oxoglutarate. The rate of NADH oxidation was calculated using an extinction coefficient of 6.22 mM^−1 cm^−1.
To this end, EGCG was tested against five different HI/HA mutant forms of GDH, namely, R265K, R269C, E296A, S448P, and H454Y. In addition, EGCG was tested against human wild type GDH (“WT”), GDH from Tetrahymena thermophilia (“tGDH”) that, like the HI/HA mutant GDH enzymes, is not regulated by GTP, and a human GDH that was missing a certain 48 residue ‘antenna-like’ feature protruding from the top of each of its six subunits that is necessary for ADP, GTP, and Palmitoyl CoA regulation. […]

[4] = tested on: rat islets; experiment: glucose stimulated insulin secretion (GSIS), short run-down (50 minutes), glucose ramp; format: cell-based; details: 20 μM, FIGS. 8A and 8B
Description: In this Example, the effect of EGCG on glucose stimulated insulin secretion (GSIS) was examined. Isolated rat islets were cultured with 20 mM glucose (FIG. 8A) and 10 mM glucose (FIG. 8B) for 3 days, then perifused in the absence of glucose for 50 minutes and in the presence of 0 μM EGCG; 20 μM EGCG; or 20 μM EGC. Next, the islets were stimulated by a glucose ramp (0 to 25 mM, 0.5 mM/minute). Finally, the islets were exposed to 30 mM KCl. Insulin levels were measured every minute by radioimmunoassay. The results shown in FIG. 8A are presented as means±S.E. for 100 islets from 3 separate experiments (and means±S.E. for 100 islets from 1 experiment for FIG. 8B).

[5] = tested on: rat islets; experiment: BCH-stimulated insulin secretion and oxygen consumption in perifused islets; format: cell-based, Wistar rat
Description: In this Example, the effects of EGCG and EGC on LSIS were measured, while simultaneously monitoring respiration rates. More particularly, the effects of EGCG (20 μM) and EGC (20 μM) on BCH-stimulated insulin secretion were measured. First, 1000 adult male Wistar rat islets were isolated as described above and were cultured on a glass perfusion chamber in 10 mM glucose for 3 days. Next, the islets were perifused in an oxygen consumption measurement apparatus containing BCH, along with 0 μM EGCG and 0 μM EGC, 20 μM EGCG, or 20 μM EGC. The perifusion apparatus used in these Examples consisted of a peristaltic pump, a water bath (37° C.), a gas exchanger (artificial lung: media flowed through the thin-walled silastic tubing loosely coiled in a glass jar that contained 20% O2 and 5% CO2 balanced with N2), and fraction collector. All transfer lines were insulated. After the system was provided with 20 μM EGCG or 20 μM EGC, oxygen partial pressure was recorded every 10 seconds by phosphorescence lifetimes of an oxygen-sensitive porphyrin (palladium-mesotetra; 4-carboxyphenyl porphyrin dendrimer). The dye molecules were excited with pulses at 524 nm from a UV lead and emission was measured at 690 nm. The inflow oxygen tension was measured in the absence of islets in the chamber before and after each experiment. The perifusate was a Krebs buffer (pH 7.4) containing 2.2 mM Ca^2+, 1% bovine serum albumin equilibrated with 20% O2 and 5% CO2 balanced with N2. The flow rate was […] and samples were collected every 2 minutes for insulin measurements by radioimmunoassay. The results are summarized in FIG. 6, and are presented as means±S.E. for 1000 islets from 3 separate experiments for EGCG (and from 1 experiment for EGC). Due to the high density of data, S.E. is only shown in every 20 samples.

[6] = biological target: T1, Bovine GDH (bGDH) (Bos taurus, UniProt P00366); experiment: reductive amination reaction catalyzed by bovine GDH (NADH absorbance at 340 nm); format: biochemical
T1 construct: purchased Sigma Aldrich Chemical Company (St. Louis, Mo.)
T1 sequence (P00366 58-558): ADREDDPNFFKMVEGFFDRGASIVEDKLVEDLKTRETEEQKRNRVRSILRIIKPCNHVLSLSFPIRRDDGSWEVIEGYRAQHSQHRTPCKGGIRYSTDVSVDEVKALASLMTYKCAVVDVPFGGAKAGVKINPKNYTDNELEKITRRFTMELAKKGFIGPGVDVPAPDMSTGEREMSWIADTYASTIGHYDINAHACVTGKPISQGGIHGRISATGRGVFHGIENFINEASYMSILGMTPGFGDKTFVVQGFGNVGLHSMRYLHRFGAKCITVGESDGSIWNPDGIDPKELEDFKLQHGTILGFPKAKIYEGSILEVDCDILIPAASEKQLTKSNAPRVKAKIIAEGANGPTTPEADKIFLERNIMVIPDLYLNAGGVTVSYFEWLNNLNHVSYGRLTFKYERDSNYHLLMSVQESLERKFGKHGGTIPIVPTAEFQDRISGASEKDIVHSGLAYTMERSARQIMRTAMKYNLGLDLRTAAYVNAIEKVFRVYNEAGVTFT
Description: In this Example, the effects of epigallocatechin gallate (EGCG), epigallocatechin (EGC), epicatechin gallate (ECG), and epicatechin (EC) from Camellia sinensis on GDH activity were tested. Bovine GDH (bGDH) was used in this Example, which was obtained as an aqueous (NH4)2SO4 suspension from Sigma Aldrich Chemical Company (St. Louis, Mo.).
as §1

[7] = ethanol, DMSO, dimethyl formamide

O=C(O[C@@H]1Cc2c(O)cc(O)cc2O[C@@H]1c1cc(O)c(O)c(O)c1)c1cc(O)c(O)c(O)c1 [EGCG, (2R,3R)-2-(3,4,5-Trihydroxyphenyl)-3,4-dihydro-1 (2H)-benzopyran-3,5,7-triol 3-(3,4,5-trihydroxybenzoate)]
effect on glucose oxidation [1]: did not affect
solubility in organic solvents [2, 7]: at least 20 mg/mL
soluble in organic solvents [2, 7]: soluble
solubility in phosphate buffered saline (PBS) ([2]; pH 7.2): at least 25 mg/mL
inhibition of 'antenna-less' human GDH [3]: did not inhibit
effect on GSIS [4]: neither EGC nor EGCG affected
effect on LSIS (BCH-induced insulin secretion) ([5]; 20 μM, FIG. 6A): strongly inhibited
effect on BCH-induced increase in respiration rates ([5]; 20 μM, FIG. 6B): inhibited
effect on oxygen consumption in the absence of BCH ([5]; data not shown): did not have any significant effect
potent inhibitor of GDH activity ([6]; FIG. 1A): potent inhibitors
reversibility of inhibition ([6]; dialysis of an EGCG/GDH mixture, data not shown): reversible
